In test [1] the test system is formalin-induced rat paw oedema. As to the kind of experiment: Formalin-induced hind rat paw oedema assay. The class given is in vivo. As to conditions: low dose 10 mg kg^−1 b.w, intraperitoneal, mean ± SEM n = 5.
A further test concerns the target T1, COX-1 (Ovis aries, UniProt P05979).
T1 sequence (P05979 25-600): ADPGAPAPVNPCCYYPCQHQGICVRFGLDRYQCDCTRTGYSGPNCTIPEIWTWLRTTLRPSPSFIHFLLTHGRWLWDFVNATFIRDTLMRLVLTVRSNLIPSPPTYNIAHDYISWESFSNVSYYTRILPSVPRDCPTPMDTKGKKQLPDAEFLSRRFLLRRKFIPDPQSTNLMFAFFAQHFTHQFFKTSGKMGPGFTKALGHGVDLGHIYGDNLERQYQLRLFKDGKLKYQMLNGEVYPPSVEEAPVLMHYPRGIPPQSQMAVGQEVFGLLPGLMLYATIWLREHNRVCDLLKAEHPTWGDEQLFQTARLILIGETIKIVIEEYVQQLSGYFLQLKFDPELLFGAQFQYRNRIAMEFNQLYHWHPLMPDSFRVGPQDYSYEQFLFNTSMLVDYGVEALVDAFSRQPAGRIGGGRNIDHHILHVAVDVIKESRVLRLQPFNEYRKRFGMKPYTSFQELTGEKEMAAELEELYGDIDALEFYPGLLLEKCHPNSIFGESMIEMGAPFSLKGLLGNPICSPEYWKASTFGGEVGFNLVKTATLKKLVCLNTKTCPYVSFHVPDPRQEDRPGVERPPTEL
As to the kind of experiment: COX-1 inhibitory assay. Type of test: biochemical. As to conditions: Cyclooxygenase-1; ΔGexp = −RT ln IC50, T = 300 K.

Here are results for two compounds from publication PMC9040635 (RSC Advances, 2021).

With `Cc1ccc(-c2cc(C(F)(F)F)nn2-c2ccc(S(N)(=O)=O)cc2)cc1` [Celecoxib], the “percentage reduction of rat paw oedema” value in test [1] (1 h) is 24.7 ± 2.2%; in test [1] (2 h) it was 31.4 ± 1.8%; in test [1] (4 h), 38.5 ± 1.7%.
For the compound `COc1ccc2c(c1)c(CC(=O)O)c(C)n2C(=O)c1ccc(Cl)cc1` [Indomethacin], at COX-1, the “ΔGexp (experimental binding free energy)” value was -11.0 kcal/mol. The “percentage reduction of rat paw oedema” value stood at 23.3 ± 2.2% in test [1] (1 h), 31.0 ± 3.0% in test [1] (2 h) and 37.4 ± 2.8% in test [1] (4 h).
